One molecule from patent US20250388542A1, “ANALOGUES OF PENTAMIDINE AND USES THEREFOR” (Auransa Inc., priority 2018, published 2025) can be followed below.

For orientation: IC50 means the point on the concentration scale where inhibition reaches its midpoint.

Holding throughout (assay): CellTiter-Glo cytotoxicity, cancer cell line panel
Holding throughout (format): cell-based

In one test the test system is SNU-739. The settings on record: SNU-739, Hepatocellular carcinoma. On the procedure: (§1) The objective of this study is to investigate potential cell killing effect of Compounds 1-15 on 3 cancer cell lines. 50% inhibition concentration (IC50) was determined for these compounds in various cancer cell lines using CellTiter-Glo™ luminescent cell viability assay at different compound concentrations. Each cell line (e.g., NCI-H209; NCI-H69; and SW1271) was treated with Compounds 1-15 and culture medium contains 0.2% [v/v] DMSO vehicle control. All the cells were cultured in the media supplemented with 10-20% fetal bovine serum at 37° C., 5% CO2 and 95% humidity.
(§2) The objective of this study is to investigate the effect of Compound 1 on cytotoxicity against 61 different types of cancer cell lines. IC50 were values were obtained using CellTiter-Glo™ as described above. Each cell line shown in Table 3 was treated with Compound 1, a standard chemotherapy drug, cisplatin, as reference control and culture medium contains 0.2% [v/v] DMSO vehicle control. All cancer cell lines were cultured in media supplemented with 10-20% fetal bovine serum at 37° C., 5% CO2 and 95% humidity.

The next test deals with UO.31. The following applies: Homo sapiens; UO.31, Renal cell carcinoma. On the procedure: as §1, §2
The next test concerns Hep G2. The settings on record: Homo sapiens, HepG2; Hep G2, Hepatoblastoma carcinoma. On the procedure:
as §1, §2

Another test deals with SNU-368. The settings on record: SNU-368, Hepatocellular carcinoma. On the procedure: as §1, §2
Another test has as its system NCI-H460. The following applies: Homo sapiens; NCI-H460, Large cell lung carcinoma. On the procedure:
as §1, §2

The next test concerns HUH-1. The settings on record: Homo sapiens; HUH-1, Hepatocellular carcinoma. On the procedure: as §1, §2
The subject of another test is SF268. The settings on record: Homo sapiens, SF-268; SF268, Astrocytoma. On the procedure:
as §1, §2

A further test relates to NOZ. The settings on record: Gallbladder carcinoma. On the procedure:
as §1, §2

A further test concerns SNU-354. The following applies: Homo sapiens; SNU-354, Hepatocellular carcinoma. On the procedure: as §1, §2
Another test has as its system HLE. The following applies: Homo sapiens, Hepatocellular carcinoma. On the procedure: as §1, §2
Another test concerns OCUG-1. The settings on record: OCUG-1, Gallbladder carcinoma. On the procedure:
as §1, §2

For the next test, the system named is OVCAR-3. The settings on record: Homo sapiens; OVCAR-3, High grade ovarian serous adenocarcinoma. On the procedure: as §1, §2
A further test concerns SW 156. The settings on record: SW 156, Renal cell carcinoma. On the procedure: as §1, §2
A further test concerns SK-HEP-1. The following applies: Homo sapiens, SK-HEP1; SK-HEP-1, Hepatocellular carcinoma. On the procedure: as §1, §2
The next test relates to Caki-2. The settings on record: Homo sapiens; Caki-2, Papillary renal cell carcinoma. On the procedure:
as §1, §2

A further test concerns ACHN. The settings on record: Homo sapiens, Papillary renal cell carcinoma. On the procedure:
as §1, §2

In another test the test system is MHCC97-H. The following applies: Homo sapiens, MHCC97H, Hepatocellular carcinoma. On the procedure: as §1, §2
A further test has as its system JHH-5. The settings on record: JHH-5, Hepatocellular carcinoma. On the procedure: as §1, §2
The next test has as its system Saos-2. The following applies: Homo sapiens; Saos-2, Osteosarcoma. On the procedure: as §1, §2
The next test concerns SNU-475. The following applies: Homo sapiens; SNU-475, Hepatocellular carcinoma. On the procedure:
as §1, §2

A further test has as its system A498. The settings on record: Homo sapiens; A498, Renal cell carcinoma. On the procedure:
as §1, §2

Regarding `N=C(N)c1ccc(OCCCCCOc2ccc(C(=N)N)nc2)cc1` [Compound 1, 5-(5-(4-carbamimidoylphenoxy)pentyloxy)picolinimidamide], the half-inhibitory concentration (IC50) came to 2230 nM in the test on SNU-739; 3470 nM in the test on UO.31; 340 nM with Hep G2; 360 nM in the test on SNU-368; 520 nM with NCI-H460; 3200 nM in the test with HUH-1. Further, the concentration for half-maximal inhibition (IC50) in the test on SF268 came to 750 nM; in the test on NOZ it was 2540 nM; with SNU-354, 840 nM; in the test with HLE it was 590 nM; in the test on OCUG-1, 2890 nM; in the test on OVCAR-3 it was 1960 nM. Besides, the concentration for half-maximal inhibition (IC50) in the test with SW 156 stood at 6280 nM; in the test on SK-HEP-1 it was 4720 nM; with Caki-2 it was 4180 nM; in the test on ACHN it was 4640 nM; with MHCC97-H it was 8310 nM; with JHH-5 it was 650 nM. Further, the IC50 in the test with Saos-2 was 2390 nM; with SNU-475, 1250 nM; in the test on A498, 1170 nM.
